Results as given in patent US7122551B2, “Metalloproteinase inhibitor compounds” (AstraZeneca AB, priority 2000, dated 2006).

Experiments:
[1] = biological activity of separated enantiomers / diastereomers (test not specified); conditions: enantiomers compared by order of elution; test and target not stated

Row | melting point [°C] | SMILES | Biological activity of separated enantiomers [1]
1 | 154 to 155 | O=CN(O)C(CCc1ncc(F)cn1)CS(=O)(=O)N1CCN(c2ccc(Cl)cn2)CC1 (stereo not drawn) [Example 2, N-[1-([4-(5-chloropyridin-2-yl)piperazino]sulfonylmethyl)-3-(5-fluoropyrimidin-2-yl)propyl]-N-hydroxyformamide] | –
2 | 124.5 to 126.5 | O=CN(O)[C@@H](CCCc1ncccn1)CS(=O)(=O)N1CCN(c2ccc(Cl)cn2)CC1 [Example 4, N-[(1S)-1-({[4-(5-chloropyridin-2-yl)piperazino]sulfonyl}methyl)-4-(pyrimidin-2-yl)butyl]-N-hydroxyformamide] | –
3 | – | O=CN(O)[C@@H](CCc1ncccn1)CS(=O)(=O)N1CCN(c2ccc(Cl)cn2)CC1 [Example 6 2nd enantiomer eluted, N-[(1S)-1-({[4-(5-chloropyridin-2-yl)piperazino]sulfonyl}methyl)-3-(pyrimidin-2-yl)propyl]-N-hydroxyformamide] | Biological activity lies in the compound eluted second from the column
